Test results taken from PubChem BioAssay (NCI).
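1) Cells in 96-well plates. 2) Compound, 48 h, 5 concentrations. 3) Linear interpolation between surrounding doses. 4) Unreached endpoint = highest concentration. Definition used: TGI = concentration required for complete inhibition of growth.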

Tests used:
Assay in all cases: NCI tumour cell line growth inhibition, 48 h
SK-MEL-5 melanoma = system: SK-MEL-5 melanoma
IGROV1 ovarian = system: IGROV1 ovarian
HCT-116 colon = system: HCT-116 colon
MDA-MB-435 = system: MDA-MB-435
DMS 273 small cell lung = system: DMS 273 small cell lung
RXF 393 renal = system: RXF 393 renal
UO-31 renal = system: UO-31 renal
NCI/ADR-RES ovarian = system: NCI/ADR-RES ovarian
NCI-H23 lung = system: NCI-H23 lung
SNB-78 CNS = system: SNB-78 CNS
SW-620 colon = system: SW-620 colon
KM12 colon = system: KM12 colon
SNB-75 CNS = system: SNB-75 CNS
SF-539 CNS = system: SF-539 CNS
HCT-15 colon = system: HCT-15 colon
NCI-H226 lung = system: NCI-H226 lung
OVCAR-4 ovarian = system: OVCAR-4 ovarian
U251 CNS = system: U251 CNS
P388 leukemia = system: P388 leukemia
NCI-H522 lung = system: NCI-H522 lung
CCRF-CEM leukemia = system: CCRF-CEM leukemia
SF-295 CNS = system: SF-295 CNS
RXF-631 renal = system: RXF-631 renal
RPMI-8226 leukemia = system: RPMI-8226 leukemia
ACHN renal = system: ACHN renal
A498 renal = system: A498 renal
COLO 205 colon = system: COLO 205 colon
OVCAR-5 ovarian = system: OVCAR-5 ovarian
HOP-62 NSCLC = system: HOP-62 NSCLC
BT-549 breast = system: BT-549 breast
UACC-62 melanoma = system: UACC-62 melanoma
MOLT-4 leukemia = system: MOLT-4 leukemia
DMS 114 small cell lung = system: DMS 114 small cell lung
OVCAR-8 ovarian = system: OVCAR-8 ovarian
A549 NSCLC = system: A549 NSCLC
SK-MEL-28 melanoma = system: SK-MEL-28 melanoma
PC-3 prostate = system: PC-3 prostate
MALME-3M melanoma = system: MALME-3M melanoma
SN12K1 renal = system: SN12K1 renal
SK-OV-3 ovarian = system: SK-OV-3 ovarian
T-47D breast = system: T-47D breast
HT29 colon = system: HT29 colon
EKVX NSCLC = system: EKVX NSCLC
M14 melanoma = system: M14 melanoma
SR leukemia = system: SR leukemia
DLD-1 colon = system: DLD-1 colon
P388/ADR leukemia = system: P388/ADR leukemia
SNB-19 CNS = system: SNB-19 CNS
HS 578T breast = system: HS 578T breast
DU-145 prostate = system: DU-145 prostate
HOP-92 NSCLC = system: HOP-92 NSCLC
HL-60(TB) leukemia = system: HL-60(TB) leukemia
M19-MEL melanoma = system: M19-MEL melanoma
UACC-257 melanoma = system: UACC-257 melanoma
KM20L2 colon = system: KM20L2 colon
NCI-H460 lung = system: NCI-H460 lung
HCC-2998 colon = system: HCC-2998 colon
K-562 leukemia = system: K-562 leukemia
SK-MEL-2 melanoma = system: SK-MEL-2 melanoma
CAKI-1 renal = system: CAKI-1 renal
LOX IMVI melanoma = system: LOX IMVI melanoma
SN12C renal = system: SN12C renal
MDA-N = system: MDA-N
MCF7 breast = system: MCF7 breast
HOP-18 NSCLC = system: HOP-18 NSCLC
TK-10 renal = system: TK-10 renal
LXFL 529 NSCLC = system: LXFL 529 NSCLC
786-0 renal = system: 786-0 renal
SF-268 CNS = system: SF-268 CNS
OVCAR-3 ovarian = system: OVCAR-3 ovarian
MDA-MB-231 breast = system: MDA-MB-231 breast

What does the source list for CC(C)Cc1ccc(C(C)CC2=CCC(CN(C)C)C2=O)cc1 (stereo unspecified)?
TGI (SK-MEL-5 melanoma): 28.9 µM; TGI (IGROV1 ovarian): 24 µM; TGI (HCT-116 colon): 11.1 µM; TGI (MDA-MB-435): 20.5 µM; TGI (DMS 273 small cell lung): 14.9 µM; TGI (RXF 393 renal): 14.3 µM; TGI (UO-31 renal): 30.1 µM; TGI (NCI/ADR-RES ovarian): 43.7 µM; TGI (NCI-H23 lung): 28.2 µM; TGI (SNB-78 CNS): 14.7 µM; TGI (SW-620 colon): 4.48 µM; TGI (KM12 colon): 10.7 µM; TGI (SNB-75 CNS): 29.5 µM; TGI (SF-539 CNS): 30.9 µM; TGI (HCT-15 colon): 7.91 µM; TGI (NCI-H226 lung): 33.7 µM; TGI (OVCAR-4 ovarian): 41.6 µM; TGI (U251 CNS): 13.6 µM; TGI (P388 leukemia): 6.34 µM; TGI (NCI-H522 lung): 8.84 µM; TGI (CCRF-CEM leukemia): 12.6 µM; TGI (SF-295 CNS): 32.1 µM; TGI (RXF-631 renal): 30.5 µM; TGI (RPMI-8226 leukemia): 5.24 µM; TGI (ACHN renal): 30.4 µM; TGI (A498 renal): 33.4 µM; TGI (COLO 205 colon): 6.77 µM; TGI (OVCAR-5 ovarian): 29.9 µM; TGI (HOP-62 NSCLC): 36.4 µM; TGI (BT-549 breast): 38.9 µM; TGI (UACC-62 melanoma): 23 µM; TGI (MOLT-4 leukemia): 5.8 µM; TGI (DMS 114 small cell lung): 10.9 µM; TGI (OVCAR-8 ovarian): 20.3 µM; TGI (A549 NSCLC): 35.2 µM; TGI (SK-MEL-28 melanoma): 21.9 µM; TGI (PC-3 prostate): 28.4 µM; TGI (MALME-3M melanoma): 13.1 µM; TGI (SN12K1 renal): 11.7 µM; TGI (SK-OV-3 ovarian): 31.7 µM; TGI (T-47D breast): 4.7 µM; TGI (HT29 colon): 17.5 µM; TGI (EKVX NSCLC): 33.9 µM; TGI (M14 melanoma): 17.2 µM; TGI (SR leukemia): 3.96 µM; TGI (DLD-1 colon): 5.61 µM; TGI (P388/ADR leukemia): > 100 µM; TGI (SNB-19 CNS): 29.5 µM; TGI (HS 578T breast): 40.6 µM; TGI (DU-145 prostate): 30.2 µM; TGI (HOP-92 NSCLC): 8.41 µM; TGI (HL-60(TB) leukemia): 4.47 µM; TGI (M19-MEL melanoma): 13.8 µM; TGI (UACC-257 melanoma): 26.9 µM; TGI (KM20L2 colon): 21.2 µM; TGI (NCI-H460 lung): 48.9 µM; TGI (HCC-2998 colon): 17 µM; TGI (K-562 leukemia): 4.04 µM; TGI (SK-MEL-2 melanoma): 26.9 µM; TGI (CAKI-1 renal): 3.28 µM; TGI (LOX IMVI melanoma): 9.84 µM; TGI (SN12C renal): 20 µM; TGI (MDA-N): 17.9 µM; TGI (MCF7 breast): 2.78 µM; TGI (HOP-18 NSCLC): 32.6 µM; TGI (TK-10 renal): > 22.7 µM; TGI (LXFL 529 NSCLC): 3.11 µM; TGI (786-0 renal): 3.34 µM; TGI (SF-268 CNS): 30 µM; TGI (OVCAR-3 ovarian): 24.9 µM; TGI (MDA-MB-231 breast): 22.5 µM
